Read-outs that look alike come from different tables or passages of the source.

These results are taken from patent US20230043863A1, “HETEROAROMATIC DERIVATIVES FOR USE AS REGULATOR, PREPARATION METHOD THEREFOR AND USE THEREOF” (JIANGSU HANSOH PHARMACEUTICAL GROUP CO., LTD., priority 2018, published 2023).

For data set [1], the system named is JAK-STAT signal pathway of U266 cells. The data set is described as follows: Inhibition of cellular JAK-STAT signal pathway (STAT3 phosphorylation) in U266 cells. Particulars: Homo sapiens, U-266, INF-a 1000 U/mL stimulation. The class given is cell-based, human. Summed up: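 U266 cells (100-300 K/well) preincubated 2 h at room temperature with serially diluted compound, then stimulated 15 min with IFN-α at 1000 U/mL final. After lysis, STAT3 phosphorylation read by LANCE Ultra TR-FRET (Eu antibody 0.5 nM, ULight antibody 5 nM, overnight) at 665 nm; IC50 from 4-parameter fit of inhibition versus DMSO and negative controls.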

The target in the next data set is JAK1 (Homo sapiens, UniProt P23458). Put plainly: JAK kinase activity inhibition, TR-FRET (JAK1). The class given is biochemical. Particulars: TR-FRET kinase assay. The gist of the method: (§1)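 TR-FRET read (≈620 and 665 nm) after EDTA quench and 1-24 h antibody detection at RT. Kinase 0.1-20 nM, peptide substrate + ATP, 0.5-5 h RT reaction in HEPES 50-250 mM, MgCl2 5-20 mM. IC50 from 4-parameter fit vs DMSO and no-kinase controls.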

The nature of data set [2]: Balb/C mouse pharmacokinetics (plasma, colon, ileum). Particulars: male, po, Balb/C mice, p.o. 5 mg/kg; for Cmax: read-out: Blood concentration Cmax; for AUC(0-t): read-out: Curve area AUC0-t; for MRT: read-out: Mean detention time MRT; for Tmax: read-out: Time to peak tmax; for AUC(0-inf): read-out: Curve area AUC0-∞; for half-life: read-out: Half life period t1/2 (converted). The class given is in vivo. The source says: Balb/C mouse was used as the test animal, the pharmacokinetic behavior in mice (plasma and colon, ileum tissue) was studied after oral administering the embodiment 1, embodiment 60, embodiment 169, embodiment 170, embodiment 171, embodiment 179, embodiment 191, embodiment 213, embodiment 214, embodiment 237, embodiment 238, embodiment 244, embodiment 246, embodiment 247, embodiment 257, embodiment 260, embodiment 262, embodiment 263, embodiment 267, embodiment 277, embodiment 278, embodiment 279, embodiment 288, embodiment 295, embodiment 299 and embodiment 301 at a dose of 5 mg/kg. After analyzing the drug concentration in the colon and ileum, the ratio of the drug concentration in the colon to that in ileum, and the ratio of the drug concentration in the colon to that in the plasma, the compounds with excellent PK were selected for further research.
12 Balb/C mice in each group, male, Shanghai Jiesjie Experimental Animal Co., Ltd., animal production license number (SCXK (Shanghai) 2013-0006 N0.311620400001794).
12 Balb/C mice in each group, male; p.o. after one night fast; the dose was 5 mg/kg; the administration volume was 10 mL/kg.
At 0, 0.5, 1, 2, 3, 5 and 7 hours before and after the administration, the mice were executed by CO2 and 0.2 mL of blood was collected from the heart, placed in an EDTA-K2 test tube, and centrifuged at 6000 rpm at 4° C. for 6 minutes to separate the plasma, which was then stored at −80° C. The ileum was taken close to the cecum end with a length of about 4-5 cm, and the colon was also taken close to the cecum end with a length of about 2-3 cm, weighed and placed in a 2 mL centrifuge tube, then stored at −80° C.
1) 40 uL of plasma sample was precipitated by adding 160 uL of acetonitrile, mixed and centrifuged at 3500×g for 5-20 minutes.
2) 30 μL of plasma and intestinal homogenate sample were precipitated by adding 90 of acetonitrile containing internal standard (100 ng/mL), mixed and centrifuged at 13000 rpm for 8 minutes.
3) 70 μL of the supernatant solution after treatment was collected and 70 μL of water was added thereto, vortexed and mixed for 10 minutes, and then 20 μL was collected to analyze the concentration of the test compound by LC/MS/MS. LC/MS/MS analysis instrument: AB Sciex API 4000 Qtrap.
Liquid phase conditions: Shimadzu LC-20AD Pump
Chromatographic column: Agilent ZORBAX XDB-C18 (50×2.1 mm, 3.5 μm) mobile phase: 0.1% formic acid aqueous solution as A solution, acetonitrile as B solution
Elution time: 0-4.0 minutes, the eluent is as follows:
The main pharmacokinetic parameters were calculated with WinNonlin 6.1, and the results of mouse pharmacokinetic experiments are shown in Table 3:
NA refers to none detected or not being tested (the detection limit of blood concentration was 1 ng/mL, when the Cmax in the blood test is NA, then NA in the blood test index refers to none detected; when the Cmax in the blood test is higher than the quantitative limit 1 ng/mL, then NA in the blood test index refers to not being tested; NA in the tissues (colon and ileum) refers to not being tested).

The target in another data set is TYK2 (Homo sapiens, UniProt P29597). The data set is described as follows: JAK kinase activity inhibition, TR-FRET (TYK2). The class given is biochemical. Particulars: TR-FRET kinase assay. The gist of the method:
as §1
In general terms: Time-resolved FRET reads energy transfer from a long-lived donor to a nearby acceptor.

Chain of TYK2 (P29597 whole entry): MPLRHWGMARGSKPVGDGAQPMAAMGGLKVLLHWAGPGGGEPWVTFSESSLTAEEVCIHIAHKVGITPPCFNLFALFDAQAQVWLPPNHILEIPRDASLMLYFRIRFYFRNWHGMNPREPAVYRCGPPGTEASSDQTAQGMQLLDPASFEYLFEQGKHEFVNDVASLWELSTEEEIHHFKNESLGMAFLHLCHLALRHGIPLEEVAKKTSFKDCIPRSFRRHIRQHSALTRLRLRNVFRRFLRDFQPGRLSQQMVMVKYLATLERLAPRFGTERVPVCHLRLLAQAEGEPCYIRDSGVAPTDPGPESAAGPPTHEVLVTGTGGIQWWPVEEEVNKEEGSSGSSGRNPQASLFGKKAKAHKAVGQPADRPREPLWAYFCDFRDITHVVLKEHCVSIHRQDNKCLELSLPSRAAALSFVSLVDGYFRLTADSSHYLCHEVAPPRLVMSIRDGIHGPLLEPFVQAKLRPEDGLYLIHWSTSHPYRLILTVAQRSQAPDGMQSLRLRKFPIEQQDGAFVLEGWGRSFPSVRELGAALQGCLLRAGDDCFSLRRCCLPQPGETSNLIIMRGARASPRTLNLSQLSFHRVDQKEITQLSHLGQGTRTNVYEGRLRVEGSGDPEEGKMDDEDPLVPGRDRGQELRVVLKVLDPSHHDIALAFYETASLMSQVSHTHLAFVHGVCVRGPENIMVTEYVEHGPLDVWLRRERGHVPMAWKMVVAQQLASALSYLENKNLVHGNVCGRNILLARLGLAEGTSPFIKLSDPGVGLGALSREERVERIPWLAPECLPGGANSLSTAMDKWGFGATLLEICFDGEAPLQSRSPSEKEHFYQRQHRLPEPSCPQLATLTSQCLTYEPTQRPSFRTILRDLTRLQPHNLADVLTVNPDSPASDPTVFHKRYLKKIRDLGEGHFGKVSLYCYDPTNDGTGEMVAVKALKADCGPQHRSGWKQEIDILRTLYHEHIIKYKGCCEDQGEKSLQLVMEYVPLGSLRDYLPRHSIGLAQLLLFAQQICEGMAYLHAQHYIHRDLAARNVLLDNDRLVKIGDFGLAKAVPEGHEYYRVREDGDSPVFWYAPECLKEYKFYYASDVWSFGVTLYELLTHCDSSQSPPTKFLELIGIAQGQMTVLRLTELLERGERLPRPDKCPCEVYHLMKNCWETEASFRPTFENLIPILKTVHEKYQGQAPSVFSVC
Chain of JAK1 (P23458 whole entry): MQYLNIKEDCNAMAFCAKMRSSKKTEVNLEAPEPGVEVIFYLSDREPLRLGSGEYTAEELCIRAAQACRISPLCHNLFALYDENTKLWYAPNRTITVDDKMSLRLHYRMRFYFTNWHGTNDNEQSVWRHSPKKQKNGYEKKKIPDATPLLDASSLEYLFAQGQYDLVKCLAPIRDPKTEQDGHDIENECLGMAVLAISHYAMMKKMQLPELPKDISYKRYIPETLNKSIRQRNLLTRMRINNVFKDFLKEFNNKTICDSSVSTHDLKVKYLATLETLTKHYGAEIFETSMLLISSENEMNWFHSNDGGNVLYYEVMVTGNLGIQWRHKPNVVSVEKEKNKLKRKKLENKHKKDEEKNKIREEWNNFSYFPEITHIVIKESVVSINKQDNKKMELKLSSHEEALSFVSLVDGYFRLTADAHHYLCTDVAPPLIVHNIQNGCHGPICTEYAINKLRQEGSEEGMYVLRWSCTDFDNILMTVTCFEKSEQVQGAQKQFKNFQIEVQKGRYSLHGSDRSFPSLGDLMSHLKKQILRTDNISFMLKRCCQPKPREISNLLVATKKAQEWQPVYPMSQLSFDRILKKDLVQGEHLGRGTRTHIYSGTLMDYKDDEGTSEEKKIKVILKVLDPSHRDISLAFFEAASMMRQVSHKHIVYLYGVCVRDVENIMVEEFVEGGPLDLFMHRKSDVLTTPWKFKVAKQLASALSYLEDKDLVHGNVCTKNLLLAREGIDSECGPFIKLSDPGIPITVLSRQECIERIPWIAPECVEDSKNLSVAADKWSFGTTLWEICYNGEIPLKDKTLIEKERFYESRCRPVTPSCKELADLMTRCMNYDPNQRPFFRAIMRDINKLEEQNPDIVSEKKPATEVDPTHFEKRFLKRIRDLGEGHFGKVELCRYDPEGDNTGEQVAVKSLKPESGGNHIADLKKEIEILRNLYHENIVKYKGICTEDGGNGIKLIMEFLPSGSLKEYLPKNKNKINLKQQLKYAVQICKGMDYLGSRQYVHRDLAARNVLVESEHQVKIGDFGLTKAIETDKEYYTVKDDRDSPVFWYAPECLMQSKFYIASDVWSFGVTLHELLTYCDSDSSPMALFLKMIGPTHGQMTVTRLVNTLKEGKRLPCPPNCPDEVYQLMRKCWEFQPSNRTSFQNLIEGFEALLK

As usually defined, the IC50 is the midpoint of a concentration-inhibition curve. What is called MRT is the average time that molecules of a dose stay in the body. For orientation: Tmax means the time at which the peak concentration occurs. Regarding `Cc1cc(Nc2nc(N[C@@H]3C[C@H]4CC[C@@H](C3)N4CCC#N)nc3c2cnn3C)n[nH]1` [Embodiment 295, 3-((3-exo)-3-((1-methyl-4-((5-methyl-1H-pyrazol-3-yl)amino)-1H-pyrazolo[3,4-d]pyrimidin-6-yl)amino)-8-azabicyclo[3.2.1]oct-8-yl)propionitrile], the IC50 came to 3.63 nM in data set [1], 0.3 nM on JAK1 and 10.8 nM on TYK2. Moreover, the Cmax was found to be 6.54 ng/mL in data set [2] (plasma, blood); 1030 ng/mL in data set [2] (colon); 4300 ng/mL in data set [2] (ileum). Also, the AUC(0-t) in data set [2] (plasma, blood) was determined as 10.4 ng·h/mL; in data set [2] (colon), 3390 ng·h/mL; in data set [2] (ileum), 10700 ng·h/mL. Also, the MRT is 1.77 h in data set [2] (plasma, blood); 3.82 h in data set [2] (colon); 2.69 h in data set [2] (ileum). The Tmax was determined as 2 h in data set [2] (plasma, blood); 3 h in data set [2] (colon); 3 h in data set [2] (ileum).

Compound `Cc1cc(Nc2nc(N[C@@H]3C[C@H]4CCC[C@@H](C3)N4C(=O)CN3CCOCC3)nc3ccsc23)n[nH]1` [Embodiment 288, 1-((3-exo)-3-((4-((5-methyl-1H-pyrazol-3-yl)amino)thieno[3,2-d]pyrimidin-2-yl)amino)-9-azabicyclo[3.3.1]non-9-yl)-2-morpholinoethane-1-one] returned an IC50 in data set [1] of 4.03 nM. The IC50 on JAK1 stood at 0.27 nM. Also, in data set [2] (plasma, blood), the Cmax was found to be 11 ng/mL, the AUC(0-t) came out at 21.5 ng·h/mL, the AUC(0-inf) was 24.5 ng·h/mL and the half-life is 2.6 h. Also, in data set [2] (plasma, blood), the MRT came out at 2.5 h and the time to peak (Tmax) turned out to be 2 h. In data set [2] (colon), the Cmax was determined as 676 ng/mL, the AUC(0-t) came to 2900 ng·h/mL, the MRT amounted to 3.91 h and the Tmax came to 3 h. Moreover, in data set [2] (ileum), the Cmax amounted to 7380 ng/mL, the AUC(0-t) came to 17600 ng·h/mL, the MRT is 2.89 h and the time to peak (Tmax) is 3 h. At TYK2, the IC50 amounted to 8.09 nM.

On to `Cc1cc(Nc2nc(NC3CCN(CCC#N)CC3)nc3sccc23)n[nH]1` [Embodiment 301, 3-(4-((4-((5-methyl-1H-pyrazol-3-yl)amino)thieno[2,3-d]pyrimidin-2-yl)amino)piperidin-1-yl)propionitrile], for which 1.26 nM corresponded to half-maximal inhibition in data set [1] (IC50). Moreover, the concentration for half-maximal inhibition (IC50) on JAK1 was found to be 1.64 nM. In data set [2] (plasma, blood), the Cmax amounted to 69.4 ng/mL, the AUC(0-t) was found to be 143 ng·h/mL, the AUC(0-inf) is 145 ng·h/mL and the half-life was 1.07 h. In data set [2] (plasma, blood), the MRT was found to be 1.65 h and the time to peak (Tmax) was 1 h. In data set [2] (colon), the Cmax was determined as 1500 ng/mL, the AUC(0-t) turned out to be 4240 ng·h/mL, the mean residence time MRT is 4.74 h and the time of peak concentration (Tmax) is 5 h. Besides, in data set [2] (ileum), the Cmax came to 21100 ng/mL, the AUC(0-t) was determined as 35300 ng·h/mL, the AUC(0-inf) came to 35300 ng·h/mL and the half-life was 0.6 h. Also, in data set [2] (ileum), the MRT was 1.23 h and the Tmax stood at 1 h. The IC50 on TYK2 came to 0.45 nM.

For `Cc1cc(Nc2nc(N[C@@H]3C[C@@H]4CN(CCC#N)C[C@@H]4C3)nc3ccsc23)n[nH]1` [Embodiment 299, 3-(cis-5-((4-((5-methyl-1H-pyrazol-3-yl)amino)thieno[3,2-d]pyrimidin-2-yl)amino)hexahydrocyclopentadieno[c]pyrrole-2(1H)-yl)propionitrile], inhibition in data set [1] was half-maximal at 2.46 nM (IC50). The IC50 on JAK1 was determined as 0.28 nM. In data set [2] (plasma, blood), the Cmax amounted to 6.01 ng/mL, the AUC(0-t) was determined as 10.6 ng·h/mL, the AUC(0-inf) worked out at 17.8 ng·h/mL and the half-life is 3.76 h. In data set [2] (plasma, blood), the MRT is 1.92 h and the Tmax is 0.5 h. Also, in data set [2] (colon), the Cmax amounted to 295 ng/mL, the AUC(0-t) is 948 ng·h/mL, the MRT was 4.94 h and the Tmax came out at 7 h. Moreover, in data set [2] (ileum), the Cmax was 531 ng/mL, the AUC(0-t) turned out to be 1320 ng·h/mL, the AUC(0-inf) was 1350 ng·h/mL and the half-life was 0.89 h. For the same compound, in data set [2] (ileum), the MRT came to 3.37 h and the Tmax was determined as 3 h. At TYK2, the IC50 worked out at 0.56 nM.

Consider `Cc1cc(Nc2nc(N[C@@H]3C[C@H]4CC[C@@H](C3)N4CCC#N)nc3cc(N4CCOCC4)ccc23)n[nH]1` [Embodiment 191, 3-((3-exo)-3-((4-((5-methyl-1H-pyrazol-3-yl)amino)-7-morpholinoquinazolin-2-yl)amino)-8-azabicyclo[3.2.1]oct-8-yl)propionitrile], for which it took 2.8 nM to reach half-maximal inhibition in data set [1] (IC50). Moreover, the 50% inhibitory concentration (IC50) on JAK1 turned out to be 0.41 nM. For the same compound, in data set [2] (plasma, blood), the Cmax stood at 0.81 ng/mL and the time of peak concentration (Tmax) came to 1 h. In data set [2] (colon), the Cmax was 3350 ng/mL, the AUC(0-t) stood at 10600 ng·h/mL, the mean residence time MRT was determined as 4.59 h and the Tmax is 5 h. For the same compound, in data set [2] (ileum), the Cmax was determined as 32600 ng/mL, the AUC(0-t) was 51500 ng·h/mL, the AUC(0-inf) worked out at 51700 ng·h/mL and the half-life was 1.39 h. For the same compound, in data set [2] (ileum), the MRT worked out at 1.13 h and the time of peak concentration (Tmax) is 1 h. Also, on TYK2, the concentration for half-maximal inhibition (IC50) came to 0.94 nM.

In turn, `Cc1cc(Nc2nc(N[C@@H]3C[C@H]4CCC[C@@H](C3)N4C(=O)c3ccncc3)nc3sccc23)n[nH]1` [Embodiment 262, ((3-exo)-3-((4-((5-methyl-1H-pyrazol-3-yl)amino)thieno[2,3-d]pyrimidin-2-yl)amino)-9-azabicyclo[3.3.1]non-9-yl)(pyridin-4-yl)methanone] gave an IC50 in data set [1] of 9.47 nM. On JAK1, the IC50 was found to be 0.07 nM. For the same compound, in data set [2] (plasma, blood), the Cmax worked out at 8.01 ng/mL, the AUC(0-t) was 13.4 ng·h/mL, the mean residence time (MRT) was found to be 1.77 h and the Tmax turned out to be 2 h. In data set [2] (colon), the Cmax worked out at 1240 ng/mL, the AUC(0-t) stood at 3940 ng·h/mL, the AUC(0-inf) was 4520 ng·h/mL and the half-life was 1.69 h. Moreover, in data set [2] (colon), the MRT is 3.72 h and the Tmax was determined as 3 h. Moreover, in data set [2] (ileum), the Cmax was determined as 22300 ng/mL, the AUC(0-t) is 40200 ng·h/mL, the AUC(0-inf) is 40300 ng·h/mL and the half-life is 0.49 h. Also, in data set [2] (ileum), the mean residence time (MRT) was 1.34 h and the Tmax amounted to 1 h. The IC50 on TYK2 worked out at 1.35 nM.
